Results reported in patent publication US12636368B2, “Ionizable lipids for nucleic acid delivery” (Global Life Sciences Solutions Canada ULC, priority 2019, dated 2026).
Where two headings read alike, the source gives them in different places.

What was measured:
[1] = TNS assay, surface pKa of lipid nanoparticles; assay type: physicochemical
Procedure: In embodiments of the invention, the experimental pKa of formulated lipid nanoparticles comprising lipids in Table 1 is calculated using the 2-(p-toluidinyl)naphthalene-6-sulfonic acid (TNS) assay. The procedure for the TNS assay is described in Example 25.
The pKa of each cationic lipid was determined in lipid nanoparticles using an assay based on fluorescence of 6-(p-Toluidino)-2-naphthalenesulfonic acid sodium salt (TNS, Sigma Aldrich), which is a fluorescent probe for the conformational state of proteins5. Empty lipid nanoparticles comprising ionizable lipid in LM02 composition in distilled water at a concentration of 3.125 mM total lipid are formulated using NanoAssemblr® Spark™, and were then was characterized for LNP quality on the Zetasizer™ using a 30× dilution with 1×PBS in the low volume cuvette. Lipid nanoparticles were further diluted 4× using distilled water to 0.781 mM total lipid. TNS was prepared as a 25 μM stock solution in distilled water. Then 6.4 μL of diluted LNP samples of 0.781 mM total lipid were mixed with 10 μL of diluted TNS to a final volume of 250 μL with buffer containing 10 mM HEPES, 10 mM MES, 10 mM NH4OAc and 130 mM NaCl where the pH ranged from 3 to 9 in 0.5 pH increments.
Samples were mixed thoroughly, and the fluorescence intensity was measured at room temperature in a BioTek™ Synergy™ H1 Hybrid Multi-Mode Monochromator™ Fluorescence Microplate Reader using excitation and emission wavelengths of 321 nm and 445 nm respectively. A sigmoidal best fit analysis was applied to the fluorescence data using GraphPad Prism™ software, and the pKa was measured as the pH at half-maximal fluorescence intensity.

C56BL/6 mice = assay: hEPO expression in mice after i.v. EPO mRNA LNPs; assay type: in vivo
Procedure: C56BL/6 mice were administered i.v doses of 0.5, 1 or 3 mg/Kg of recombinant human EPO-encoded mRNA LNPs containing ionizable lipids MC3, PNI 76, PNI 121 and PNI 127 using the LM02 composition at N/P 6; hEPO protein was measured using Quantikine® IVD® ELISA Human Erythropoietin Immunoassay protocol. Results for the 0.5 mg/Kg dosage are shown in the scatter plot of FIG. 7. Results for the 1 and 3 mg/Kg doses are shown in FIG. 8 as scatter plots of hEPO expression levels at 6 h (left) and 24 h (right).
In another study, 5-moU EPO mRNA encapsulated in LM02 LNP at an N/P ratio of 6 and a dose of 0.5 mg/Kg comprising a variety of […] ionizable lipids (PNI 336, PNI 534, PNI 535, PNI 342, PNI 321, PNI 532, PNI 538, PNI 541, PNI 325, PNI 328, PNI 329, PNI 539, PNI 540, PNI 127); along with MC3 as a control, were administered. hEPO protein was measured using ProteinSimple® Ella platform, and the rhEPO microfluidic cartridges provided by the manufacturer.
Blood from mice treated with hEPO mRNA LNP was analyzed using an automated ELISA platform “ELLA”, using Simplex™ antibody panel cartridges. Human-specific EPO and mouse-specific IL-5, IL-6, TNF-α, and IFN-γ were measured (reagents from Bio-techne). Briefly, 50 μL of sample reagent (diluted biological sample, quality control, or calibration point sample) were aliquoted into each sample inlet, and 1 mL of wash buffer was added into corresponding inlets on the cartridge. All immunoassay operations (including prime system, flow samples and split them into channels, sample incubation, wash, rehydrate and flow secondary antibody, wash, rehydrate and flow streptavidin dye conjugate, incubate, wash, scan) were processed automatically. Raw signal levels (relative fluorescence units, RFUs), mean signal values, standard deviation, and coefficient of variance (CV) for each glass nanoReactor (GNR) value are provided. RFU values are automatically backfit by the ELLA to produce an analyte concentration per analyte/sample using the manufacturer given calibration methodology.
Reagents were acquired from Quantikine, Minneapolis, MN. The assay was performed as directed on the Quantikine® IVD® ELISA Human Erythropoietin Immunoassay protocol REF DEP00 Package Insert. Briefly; Sera samples of 6 h, and/or 24 h post intravenous administration of 0.5, 1 or 3 mg/kg dose of EPO-encoded mRNA were analyzed for EPO expression analysis, and expressed as mIU/mL. To an EPO antibody pre-coated 96-well microplate, provided by the manufacturer, standards, appropriately diluted sera, and the Horseradish peroxidase (HRP)-conjugated rabbit anti-EPO polyclonal antibody and TMB (Tetramethylbenzidine) as the substrate were added and incubated for 20 minutes. Stop solution (Sulfuric Acid) was added to the wells and the plate was read at 450 nm and the concentration of EPO was calculated. The amount of colour generated is directly proportional to the amount of the conjugate bound to EPO antibody, which in turn is directly proportional to the amount of EPO in the specimen or standard. A standard curve was generated by plotting absorbance versus concentration of provided standards. Quantikine® Human Serum Controls (CEP 01, CEP 03) were used for internal controls.

[2] = LNP size and PDI by dynamic light scattering; assay type: physicochemical
Procedure: After the lipid particles were made as described supra, particle size (hydrodynamic diameter of the particles) was determined by Dynamic Light Scattering (DLS) using a ZetaSizer™ Nano ZS™ (Malvern Instruments, UK). He/Ne laser tuned to 633 nm wavelength was used as the light source. Data were measured from the scattered intensity data conducted in backscattering detection mode (measurement angle=173). Measurements were an average of 10 runs of two cycles each per sample. Z-Average size was reported as the particle size, and is defined as the harmonic intensity averaged particle diameter.
(§1) Physical characteristics of lipid nanoparticle (LNP) compositions comprising compounds according to Formula (I) and that were manufactured on the NanoAssemblr® Spark and Benchtop, are shown in Tables 6 and 7 below. Size, size variation of the LNP (PDI), encapsulation efficiency, and pKa are shown. The physical characteristics of these LNP are important from a standpoint of stability, biodistribution, and cell membrane crossing. There was good encapsulation in all the formulations, with polydispersity (PDI) under 0.3. Size and PDI were measured using dynamic light scattering techniques, and nucleic acid encapsulation efficiency was calculated from a modified Quant-iT RiboGreen RNA assay.

[3] = Nucleic acid encapsulation efficiency by RiboGreen assay; assay type: physicochemical
Procedure: Messenger RNA or plasmid NAT was diluted using sodium acetate buffer to the required concentration. Lipid nucleic acid particle samples were then prepared by running both fluids using the NanoAssemblr® Spark instrument. […] The lipid nucleic acid particles made in the instrument were immediately diluted down with 48 μL Ca and Mg free 1×PBS at pH 7.4 in the aqueous output well. These nucleic acid lipid particles were immediately collected into microcentrifuge tubes containing 96 μL of Ca and Mg free 1×PBS at pH 7.4. Encapsulation efficiency was measured by a modified Ribogreen™ assay (Quanti-iT RiboGreen™ RNA assay kit, Fisher). Observed particle attributes were generally sized from 60-200 nm for mRNA, depending on lipid composition and method of production.
as §1

[4] = system: isolated primary human T cells; assay: GFP mRNA-LNP transfection of primary human T cells, flow cytometry; assay type: cell-based
Procedure: Reagents were from Stemcell Technologies unless otherwise stated. Tcells were isolated from a single donor. At 48 h following lipid particle mRNA exposure, the treated T cells were harvested by transferring the cell suspensions to pre-labeled 1.5 mL tubes and centrifuged 300×g at 4 degrees C. for 10 minutes. Supernatant was removed and the pellet resuspended in PBS. An amount of 0.5 ul of BD Horizon™ Fixable Viability Stain 575V™ (BD Biosciences), was added, and the mixture incubated in the dark for 10 minutes at RT. This stain binds to amines.
The cells were centrifuged again as before, then washed twice with 1 mL of stain buffer (BSA, BD Pharminigen), and the washed pellet was diluted in 100 μl BSA. The following antibodies were added to each tube of treated cells in 2 μl volumes: CD25, CD8, CD4, (PerCP-Cy™ 5.5 Mouse Anti Human CD25, BV786 Mouse Anti-Human CD8 Clone RPA-T8, APC-Cy™7 Mouse Anti-Human CD4 Clone SK3 (all from BD Pharmingen) with the exception of the controls: in the eGFP only sample and viability control, no antibody was added. In the single stain compensation tubes, only one antibody per tube was added.
The tubes were incubated at 4 degrees C. for 30 min, whereupon […] of stain buffer was added, and the cells were centrifuged again. Cells were washed once with 1 mL of stain buffer and spun down again as in step one. Cell pellets were resuspended in 1 mL of stain buffer and added to pre-labeled flow tubes with cell strainer caps (Corning Falcon). […]
GFP MFI was measured by flow cytometry 48 hours after LNP addition. T cells were isolated from whole blood using a negative isolation procedure (EasySep™ Human T Cell Isolation Kit, Stemcell Technologies). T cells were dosed with mRNA-LNPs 3 days after activation with 500 ng of encapsulated mRNA per 125,000 cells. The LNP were CT10 compositions with an N/P of 8. Transfection efficiency (upper graph) and MFI (lower graph) were measured by flow cytometry 48 h after LNP addition.

human T cells = assay: eGFP ELISA after eGFP mRNA LNP treatment of human T cells; assay type: cell-based; conditions: Table 4; for Fold Change Relative to MC3: eGFP (pg) relative to MC3; for eGFP: quantity of expressed eGFP, eGFP mRNA LNPs, CT10
Procedure: Reagents were acquired from Abcam, Cambridge, UK unless otherwise stated. […] The assay was performed as directed by the eGFP SimpleStep ELISA® Kit protocol. Briefly; frozen human T cells, previously isolated from fresh human whole blood using a negative selection protocol, were thawed and activated using a triple activator. […] After 48 hours of treatment with mRNA LNPs the T cells were harvested and lysed for total eGFP content.
In order to expose the isolated and activated T cells (Day 0) to the formulated mRNA, 2 ug of CleanCap™ eGFP (Trilink Biotechnologies, San Diego, CA) mRNA-containing LNP was added to 500,000 T cells in 1 mL of complete T cell media, with 1 ug/mL of Recombinant Human ApoE4 (“ApoE”) (Peprotech Inc., Montreal, Canada).
Frozen human T cells, previously isolated from fresh human whole blood using a negative selection protocol, were thawed and activated using a triple activator. At 10 days post-activation, T cells were dosed with CT10 mRNA LNPs LNP comprising DLin-MC3-DMA, PNI 76, PNI 119, PNI 120, PNI 121, and PNI 122 encoding eGFP at 2 pg mRNA per 500,000 cells and N/P 10. Protein expression was measured after 48 hours by eGFP ELISA.

[5] = Table 1, formulated lipid nanoparticles, TNS assay, read-out: Exp. pKa
[6] = Table 6, GFP-encoded LNPs, CT10, N/P 8
[7] = Table 7, EPO mRNA LNPs, LM02, N/P 6
[8] = Table 4, determined by TNS assay, read-out: pKa Ex.

Compound: CCCCC/C=C\C/C=C\CCCCCCCC(=O)O[C@@H]1[C@@H](OC(=O)CCCCCCC/C=C\C/C=C\CCCCC)CO[C@@H]1COC(=O)CC1CCCCN1C (mixture of isomers) [PNI 540]
- pKa [1, 5]: 5.6
- pKa ([1]; Table 8, read-out: Exp.pKa): 5.6
- hEPO protein level compared with MC3 (C56BL/6 mice; FIG. 9, 5-moU EPO mRNA, LM02, N/P 6, 0.5 mg/Kg, 6 h): compare well to MC3
- protein expression in vivo compared with MC3 (C56BL/6 mice; summary, Table 7 and Figures): equivalent to MC3
- Diameter (Z. ave, nm) [2, 6]: 60.6 nm
- Polydispersity Index (PDI) [2, 6]: 0.08
- Diameter (Z. ave, nm) [2, 7]: 65.7 nm
- Polydispersity Index (PDI) [2, 7]: 0.05
- Encapsulation Efficiency (%) [3, 6]: 93.5%
- Encapsulation Efficiency (%) [3, 7]: 88.1%

Compound: CCCCCCCCC1CC1CCCCCCCC(=O)O[C@@H]1[C@@H](OC(=O)CCCCCCCC2CC2CCCCCCCC)CO[C@@H]1COC(=O)C1(C)CCN(C)CC1 (mixture of isomers) [PNI 541]
- pKa [1, 5]: 6.46
- pKa ([1]; Table 8, read-out: Exp.pKa): 6.46
- amount of protein produced (MFIs) compared with MC3 [4]: better than MC3
- protein expression (GFP MFI) compared with MC3 ([4]; FIG. 5, CT10, N/P 8, 500 ng mRNA per 125,000 cells, 3 days after activation, 48 h): higher levels of protein expression than MC3
- amount of protein produced (MFI) in human T cells compared with MC3 ([4]; summary): better than MC3
- Diameter (Z. ave, nm) [2, 6]: 109.4 nm
- Polydispersity Index (PDI) [2, 6]: 0.28
- Diameter (Z. ave, nm) [2, 7]: 73.8 nm
- Polydispersity Index (PDI) [2, 7]: 0.06
- Encapsulation Efficiency (%) [3, 6]: 73.5%
- Encapsulation Efficiency (%) [3, 7]: 97.1%

Compound: CCCCC/C=C\C/C=C\CCCCCCCCC(CCCCCCCC/C=C\C/C=C\CCCCC)OC(=O)CCCN(C)C [MC 3, DLin-MC3-DMA, reference compound]
- pKa [1, 8]: 5.99
- % eGFP + ([4]; Table 4, transfection efficiency, eGFP mRNA LNPs, CT10, N/P 8): 58.95%
- Fold Change Relative to MC3 (human T cells): 1
- eGFP (human T cells): 1370.0 pg

Compound: CCCCCCCCCCCCCC(=O)O[C@@H]1[C@@H](OC(=O)CCCCCCCCCCCCC)CO[C@@H]1COC(=O)CCCN(C)C [PNI]
- pKa [1, 8]: 7.48
- Fold Change Relative to MC3 (human T cells): 0.589
- eGFP (human T cells): 807.0 pg
